One assay has as its target T1, FldA (Escherichia coli, UniProt P61949).
T1 construct: monomer; long-chain flavodoxin
T1 sequence (P61949 1-176): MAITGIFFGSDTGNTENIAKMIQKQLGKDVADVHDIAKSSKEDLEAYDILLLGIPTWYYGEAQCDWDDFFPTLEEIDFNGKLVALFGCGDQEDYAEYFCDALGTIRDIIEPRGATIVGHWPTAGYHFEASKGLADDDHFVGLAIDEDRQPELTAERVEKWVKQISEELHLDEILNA
The assay can be described thus: solution NMR structure of holo-form; […] HSQC titration. In kind it is binding. The settings on record: oxidized FMN, non-covalent; pH 7.0, 30 mM sodium phosphate, 30 mM NaCl, 25 °C.

For a further assay, the target named is T2, YqcA (Escherichia coli, UniProt P65367).
T2 construct: monomer; short-chain flavodoxin
T2 sequence (P65367 whole entry): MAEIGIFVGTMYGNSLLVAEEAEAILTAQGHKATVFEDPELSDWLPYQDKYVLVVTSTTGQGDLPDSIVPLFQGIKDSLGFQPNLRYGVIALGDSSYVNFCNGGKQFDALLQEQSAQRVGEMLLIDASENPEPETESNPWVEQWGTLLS
Described as above. Type of assay: binding. The settings on record: oxidized FMN, non-covalent; slow exchange; pH 7.0, 30 mM sodium phosphate, 30 mM NaCl, 25 °C.

From PMC4122359, “Conformational Dynamics of Escherichia coli Flavodoxins in Apo- and Holo-States by Solution NMR Spectroscopy” (PLoS ONE, 2014) come the findings set out here.

Turning to `Cc1cc2nc3c(=O)[nH]c(=O)nc-3n(C[C@H](O)[C@H](O)[C@H](O)COP(=O)(O)O)c2cc1C` [FMN], the “solution NMR structure of holo-form; 15N HSQC titration” value is reported as “FMN titration experiments were performed with FldA” at FldA and “These results demonstrate that YqcA binds FMN with high affinity” on YqcA.
